Reference: US20080064052A1, “Crystal of a Receptor-Ligand Complex and methods of use” (priority 2006, published 2008)
Values joined by “and” are separate entries in the source; they are usually repeats but may differ in a detail not shown here. Equal entries are not always repeated. Where two headings read alike, the source gives them in different places. Ends that are not written are not given here. Peptide text beside a SMILES is read from it. * marks the point of attachment. Biotin = O=C1N[C@H]2[C@H](CS[C@H]2CCCCC(=O)*)N1

T1: mouse EphB4 ectodomain Fc fusion protein (Mus musculus, UniProt P54761)
T1 sequence (P54761 16-539 limits assumed): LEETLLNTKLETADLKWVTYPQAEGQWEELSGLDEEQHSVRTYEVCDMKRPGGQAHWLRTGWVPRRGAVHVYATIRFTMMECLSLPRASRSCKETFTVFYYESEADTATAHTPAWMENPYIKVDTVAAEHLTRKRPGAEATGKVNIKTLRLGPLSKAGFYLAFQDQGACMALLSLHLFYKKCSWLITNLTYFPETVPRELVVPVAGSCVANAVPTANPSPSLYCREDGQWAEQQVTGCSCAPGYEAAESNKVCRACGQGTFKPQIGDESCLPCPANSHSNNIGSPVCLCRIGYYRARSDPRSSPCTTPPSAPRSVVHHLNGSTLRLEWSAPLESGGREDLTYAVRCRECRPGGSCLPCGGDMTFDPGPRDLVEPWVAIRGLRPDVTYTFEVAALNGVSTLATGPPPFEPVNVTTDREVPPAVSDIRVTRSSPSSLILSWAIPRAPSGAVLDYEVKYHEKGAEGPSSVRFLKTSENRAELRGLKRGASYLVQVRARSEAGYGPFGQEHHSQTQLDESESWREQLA

T2: human EphB4 ephrin-binding domain (Homo sapiens, UniProt P54760)
T2 sequence (P54760 17-196): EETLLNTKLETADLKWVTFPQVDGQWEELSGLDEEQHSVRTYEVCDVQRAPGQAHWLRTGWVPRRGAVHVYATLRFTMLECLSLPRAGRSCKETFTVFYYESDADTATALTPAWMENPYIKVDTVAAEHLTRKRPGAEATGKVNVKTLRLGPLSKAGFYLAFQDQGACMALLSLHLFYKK

T3: human EphB4 ephrin-binding domain, EphB4 (17-196) (human, UniProt P54760 17-196)
T3 sequence: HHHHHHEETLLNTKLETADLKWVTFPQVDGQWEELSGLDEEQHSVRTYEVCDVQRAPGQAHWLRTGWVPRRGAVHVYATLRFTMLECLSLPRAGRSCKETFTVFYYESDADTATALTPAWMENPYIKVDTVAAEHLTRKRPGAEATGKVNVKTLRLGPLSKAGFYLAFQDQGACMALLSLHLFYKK

T4: mouse EphB4 ectodomain Fc fusion protein (mouse EphB4-Fc-His, R&D Systems) (mouse, UniProt P54761 16-539)
T4 construct: extracellular domain; also called murine EphB4; not shown: Fc part of a bought fusion protein; His tag of the bought protein
T4 sequence (looked up): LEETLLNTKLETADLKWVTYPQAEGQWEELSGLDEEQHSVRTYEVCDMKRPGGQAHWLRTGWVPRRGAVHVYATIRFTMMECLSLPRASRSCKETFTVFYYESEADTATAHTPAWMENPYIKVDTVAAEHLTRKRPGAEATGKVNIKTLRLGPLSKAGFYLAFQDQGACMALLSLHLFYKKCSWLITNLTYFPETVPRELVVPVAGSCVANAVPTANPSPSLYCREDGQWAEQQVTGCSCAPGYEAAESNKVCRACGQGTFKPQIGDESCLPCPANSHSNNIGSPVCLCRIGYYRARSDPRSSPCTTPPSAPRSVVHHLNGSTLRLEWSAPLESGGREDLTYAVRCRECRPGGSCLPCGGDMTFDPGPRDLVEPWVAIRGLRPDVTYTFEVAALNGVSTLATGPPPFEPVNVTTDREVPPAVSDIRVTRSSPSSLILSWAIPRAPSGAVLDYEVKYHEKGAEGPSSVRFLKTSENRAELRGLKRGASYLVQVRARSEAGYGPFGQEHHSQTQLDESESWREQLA


Legend:
[1] = molecular target: T1, mouse EphB4 ectodomain Fc fusion protein; test: ELISA competition: inhibition of mouse ephrin-B2 alkaline phosphatase (AP) binding to immobilized mouse EphB4 ectodomain Fc; conditions: murine receptor; for IC50: IC50 for inhibition of mouse ephrin-B2 AP binding to immobilized mouse EphB4 ectodomain Fc, ELISA binding assay
[2] = molecular target: T2, human EphB4 ephrin-binding domain; test: Isothermal titration calorimetry (ITC) binding to EphB4 (17-196); conditions: 25° C., 50 mM Tris pH 7.8, 150 mM NaCl
Description: Peptides were dissolved into the same buffer used for the dialysis of EphB4. […] ITC experiments were performed with a Microcal MCS ITC at 25° C. Following an initial injection of 2 μl, titrations were performed by making 20 13 μl injections of peptide into EphB4 in the sample cell to produce an approximate final 2:1 ratio of injectant to sample in the cell. […] Prior to loading the sample cell, EphB4 was centrifuged at 18,000 g for 5 min at 4° C. to remove aggregates and degassed for 5 minutes at room temperature. […] Dilution data were fit to a line and subtracted from the corresponding titration data.

[3] = molecular target: T3, human EphB4 ephrin-binding domain, …; test: ITC at 25 °C, peptide injected into human EphB4 (17-196)
Description: (§1) Isothermal titration calorimetry and ELISA experiments: EphB4and ephrin-B2 were either dialyzed or buffer exchanged into 50 mM Tris-Cl (pH 7.8 at 25° C.), 150 mM NaCl, 1 mM CaCl₂, prior to use in calorimetry experiments. Peptides were dissolved into the same buffer used for the dialysis of EphB4. The concentration of EphB4, ephrin-B2 and the peptides was determined by measuring the A₂₈₀ and using the theoretical-extinction coefficient (Gill and von Hippel, 1989). ITC experiments were performed with a Microcal MCS ITC at 25° C. Following an initial injection of 2 μl, titrations were performed by making 20 13 μl injections of peptide into EphB4 in the sample cell to produce an approximate final 2:1 ratio of injectant to sample in the cell. For most titrations the sample cell contained 15 μM EphB4 and the injection syringe contained a 200 μM solution of the peptide. Titrations with ephrin-B2 contained 13 μM EphB4 in the sample cell and 290 μM ephrin-B2 in the syringe. Prior to loading the sample cell, EphB4 was centrifuged at 18,000 g for 5 min at 4° C. to remove aggregates and degassed for 5 minutes at room temperature. Corrections for heats of dilution for the peptides and ephrin-B2 were determined by performing titrations of peptide or ephrin-B2 solutions into buffer. Dilution data were fit to a line and subtracted from the corresponding titration data. Titration data were analyzed using Origin ITC software (Version 5.0, Microcal Software Inc.) and curves were fit to a single binding site model (Wiseman et al., 1989). […] A lower limit for the binding constant was determined by performing a titration in which the sample cell contained 30 μM EphB4 and the injection syringe contained a 1.45 mM solution of the peptide, producing a final ratio of peptide to EphB4 of 10:1. The data was fit assuming a stoichiometry of 1 and at least 60% saturation of binding at the final peptide concentration (Turnbull and Daranas, 2003).

[4] = molecular target: T4, mouse EphB4 ectodomain Fc fusion …; test: competition ELISA: inhibition of mouse ephrin-B2 AP binding to immobilized mouse EphB4 ectodomain Fc
Description: The ability of peptides to compete the binding of mouse ephrin-B2 alkaline phosphatase to immobilized mouse EphB4-Fc-His (R&D Systems) was measured by ELISA as previously described (Koolpe et al., 2005).

[5] = molecular target: T3, human EphB4 ephrin-binding domain, …; test: ITC at 25 °C, 290 µM ephrin-B2 injected into 13 µM human EphB4 (17-196)
Description: Experiments were performed at 25° C. in 50 mM Tris pH 7.8, 150 mM NaCl, 1 mM CaCl₂.
as §1, with “10:1.” for “10:1. The data was fit assuming a stoichiometry of 1 and at least 60% saturation of binding at the final peptide concentration (Turnbull and Daranas, 2003).”

| Molecule | IC50 [1] | TΔS ([2]; 1 mM CaCl2) [kcal/mol] | ΔG ([2]; 1 mM CaCl2) [kcal/mol] | ΔH ([2]; 1 mM CaCl2) | further results |
| --- | --- | --- | --- | --- | --- |
| CC[C@H](C)[C@H](NC(=O)[C@@H]1CCCN1C(=O)CNC(=O)[C@H](CC(N)=O)NC(=O)[C@@H]1CCCN1C(=O)[C@H](CO)NC(=O)[C@H](Cc1ccccc1)NC(=O)[C@@H](N)CC(C)C)C(=O)N[C@@H](C)C(=O)N[C@@H](CCCNC(=N)N)C(=O)N[C@@H](C)C(=O)N[C@@H](Cc1c[nH]c2ccccc12)C(=O)O [LFSP-RAW] (H-LFSPNGPIARAW-OH; N-terminus and C-terminus assumed) | > 10000 nM | 2.1 ± 0.4 | -7.4 ± 0.1 | -5.3 ± 0.5 kcal/mol |  |
| CC[C@H](C)[C@H](NC(=O)[C@@H]1CCCN1C(=O)CNC(=O)[C@H](CC(N)=O)NC(=O)[C@@H]1CCCN1C(=O)[C@H](CO)NC(=O)[C@H](Cc1ccccc1)NC(=O)[C@H](CC(C)C)NC(=O)[C@H](Cc1ccc(O)cc1)NC(=O)[C@@H](N)CC(N)=O)C(=O)N[C@@H](C)C(=O)N[C@@H](CCCNC(=N)N)C(=O)N[C@@H](C)C(=O)N[C@@H](Cc1c[nH]c2ccccc12)C(=O)O [NYLF-RAW] (H-NYLFSPNGPIARAW-OH; N-terminus and C-terminus assumed) | 40 nM | -5.7 ± 0.1 | -9.8 ± 0.1 | -15.5 ± 0.1 kcal/mol |  |
| CC[C@H](C)[C@H](NC(=O)[C@@H]1CCCN1C(=O)CNC(=O)[C@H](CC(N)=O)NC(=O)[C@@H]1CCCN1C(=O)[C@H](CO)NC(=O)[C@H](Cc1ccccc1)NC(=O)[C@H](CC(C)C)NC(=O)[C@H](Cc1ccc(O)cc1)NC(=O)[C@H](CC(N)=O)NC(=O)[C@@H](N)[C@@H](C)O)C(=O)N[C@@H](C)C(=O)N[C@@H](CCCNC(=N)N)C(=O)N[C@@H](C)C(=O)N[C@@H](Cc1c[nH]c2ccccc12)C(=O)O [TNYL-RAW] (H-TNYLFSPNGPIARAW-OH; N-terminus assumed) | ~15 nM and 15 nM | -4.9 ± 0.2 | -9.8 ± 0.1 | -14.7 kcal/mol and -14.7 ± 0.2 kcal/mol | Kd ([2]; Kd, 1 mM CaCl2): 70 nM |
| CC[C@H](C)[C@H](NC(=O)[C@@H]1CCCN1C(=O)CNC(=O)[C@H](CC(N)=O)NC(=O)[C@@H]1CCCN1C(=O)[C@H](CO)NC(=O)[C@H](Cc1ccccc1)NC(=O)[C@H](CC(C)C)NC(=O)[C@H](Cc1ccc(O)cc1)NC(=O)[C@H](CC(N)=O)NC(=O)[C@@H](N)[C@@H](C)O)C(=O)N[C@@H](C)C(=O)O [TNYL] | ~150000 nM and 150000 nM |  |  | -9.6 ± 0.3 kcal/mol | fold less potent than TNYL-RAW (IC50) ([1]; ratio of IC50 values): 10,000 fold; Kd ([2]; 1 mM CaCl2, read-out: Kd): ≥ 140000 nM |
| CC[C@H](C)[C@H](NC(=O)[C@@H]1CCCN1C(=O)CNC(=O)[C@H](CC(N)=O)NC(=O)[C@@H]1CCCN1C(=O)[C@H](CO)NC(=O)[C@H](Cc1ccccc1)NC(=O)[C@H](CC(C)C)NC(=O)[C@@H](N)Cc1ccc(O)cc1)C(=O)N[C@@H](C)C(=O)N[C@@H](CCCNC(=N)N)C(=O)N[C@@H](C)C(=O)N[C@@H](Cc1c[nH]c2ccccc12)C(=O)O [YLFS-RAW] (H-YLFSPNGPIARAW-OH; N-terminus and C-terminus assumed) | 40 nM | -4.1 ± 0.4 | -9.7 ± 0.2 | -13.8 ± 0.5 kcal/mol |  |
| NYLFSPNGPIARAW [NYLF-RAW peptide (NYLFSPNGPIARAW)] |  |  |  |  | Kd [3]: 65 nM; TΔS [3]: -5.7 kcal/mol; ΔG [3]: -9.8 kcal/mol; ΔH [3]: -15.5 kcal/mol |
| ephrin-B2 Fc (Fc fusion, not shown: a dimerising Fc or GST; large carriers; small tags and cut ends) RSIVLEPIYWNSSNSKFLPGQGLVLYPQIGDKLDIICPKVDSKTVGQYEYYKVYMVDKDQADRCTIKKENTPLLNCARPDQDVKFTIKFQEFSPNLWGLEFQKNKDYYIISTSNGSLEGLDNQEGGVCQTRAMKILMKVGQDASSAGSARNHGPTRRPELEAGTNGRSSTTSPFVKPNPGSSTDGNSAGHSGNNLLGSEVALFA |  |  |  |  | IC50 [4]: 9 nM |
| YLFSPNGPIARAW [YLFS-RAW peptide (YLFSPNGPIARAW)] |  |  |  |  | Kd [3]: 80 nM; TΔS [3]: -4.1 kcal/mol; ΔG [3]: -9.7 kcal/mol; ΔH [3]: -13.8 kcal/mol |
| Eph-binding domain of human ephrin-B2 (ligand) IVLEPIYWNSSNSKFLPGQGLVLYPQIGDKLDIICPKVDSKTVGQYEYYKVYMVDKDQADRCTIKKENTPLLNCAKPDQDIKFTIKFQEFSPNLWGLEFQKNKDYYIISTSNGSLEGLDNQEGGVCQTRAMKILMKVG |  |  |  |  | Kd [5]: 40 nM; TΔS [5]: 13.4 kcal/mol; ΔG [5]: -10.2 kcal/mol; ΔH [5]: 3.3 kcal/mol |
| Human ephrin-B2 monomer (ligand) IVLEPIYWNSSNSKFLPGQGLVLYPQIGDKLDIICPKVDSKTVGQYEYYKVYMVDKDQADRCTIKKENTPLLNCAKPDQDIKFTIKFQEFSPNLWGLEFQKNKDYYIISTSNGSLEGLDNQEGGVCQTRAMKILMKVG |  |  |  |  | IC50 [4]: 10 nM |
| TNYLFSPNGPIAGSGSK(Biotin) [TNYL-biotin peptide (TNYLFSPNGPIAGSGSK-biotin)] |  |  |  |  | IC50 [4]: 50000 nM |
